Literature values in patent US20060093222A1, “Data processing, analysis, and visualization system for use with disparate data types” (priority 1999, published 2006).

Legend:
[1] = system: Bacillus subtilis and Bacillus cereus; conditions: liquid and semi-solid substrates, aerobic and anaerobic
[2] = system: stroke patients

Row | Compound | anti-sporulation effect [1] | additional patients normal or nearly normal 3 months after their stroke ([2]; for every 100 stroke patients treated with t-PA) | rate of fatal ICH ([2]; t-PA therapy, stroke patients) | rate of symptomatic intracerebral hemorrhage (ICH) ([2]; t-PA therapy, stroke patients)
1 | O=S(O)S(=O)(=O)O [metabisulphite] | effective anti-sporulation agent | – | – | –
2 | Tissue plasminogen activator [t-PA] | – | 11-13 | 3% | 6%
